Measured values reported in PubChem BioAssay AID248 (DTP/NCI, 2004).
Where “and” joins values, the source holds several entries; their conditions need not be identical. Equal values may be shown once. Toxic doses and inconclusive results are not listed. No stated cut-off is given here; in the data, active means T/C of 150% or more; inactive means T/C below 125%.

System: L1210 leukemia ip in BDF1 mice, survival T/C
Assay: NCI In Vivo Anticancer Drug Screen. Data for tumor model L1210 Leukemia (intraperitoneal) in B6D2F1 (BDF1) mice
Details: endpoint: mean survival time, higher = longer survival
Procedure, shortened: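 Ratio derived from survival: compound-dosed mice over vehicle-dosed mice, all bearing a transplantable tumor.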

[1] = dose: 100.0 mg/kg/injection, schedule: Q04DX003 (ip), vehicle: Klucel (hydroxypropylcellulose) (HPC)
[2] = dose: 100.0 mg/kg/injection, schedule: Q04DX003 (ip), vehicle: saline with Tween-80
[3] = dose: 200.0 mg/kg/injection, schedule: Q04DX003 (ip), vehicle: Klucel (hydroxypropylcellulose) (HPC)
[4] = dose: 200.0 mg/kg/injection, schedule: Q04DX003 (ip), vehicle: saline with Tween-80
[5] = dose: 400.0 mg/kg/injection, schedule: Q04DX003 (ip), vehicle: Klucel (hydroxypropylcellulose) (HPC)
[6] = dose: 400.0 mg/kg/injection, schedule: Q04DX003 (ip), vehicle: saline with Tween-80
[7] = dose: 100.0 mg/kg/injection, schedule: Q04DX002 (ip), vehicle: Klucel (hydroxypropylcellulose) (HPC)
[8] = dose: 200.0 mg/kg/injection, schedule: Q04DX002 (ip), vehicle: Klucel (hydroxypropylcellulose) (HPC)
[9] = dose: 400.0 mg/kg/injection, schedule: Q04DX002 (ip), vehicle: Klucel (hydroxypropylcellulose) (HPC)
[10] = dose: 50.0 mg/kg/injection, schedule: Q01DX001 (ip), vehicle: saline
[11] = dose: 100.0 mg/kg/injection, schedule: Q01DX001 (ip), vehicle: saline
[12] = dose: 200.0 mg/kg/injection, schedule: Q01DX001 (ip), vehicle: saline
[13] = dose: 200.0 mg/kg/injection, schedule: Q01DX009 (ip), vehicle: Klucel (hydroxypropylcellulose) (HPC)
[14] = dose: 100.0 mg/kg/injection, schedule: Q04DX003 (ip), vehicle: saline
[15] = dose: 200.0 mg/kg/injection, schedule: Q04DX003 (ip), vehicle: saline
[16] = dose: 50.0 mg/kg/injection, schedule: Q04DX002 (ip), vehicle: saline
[17] = dose: 100.0 mg/kg/injection, schedule: Q04DX002 (ip), vehicle: saline
[18] = dose: 200.0 mg/kg/injection, schedule: Q04DX002 (ip), vehicle: saline

Measured: T/C

CC1=NNC(=O)C1
inactive: dose: 50.0 mg/kg/injection, schedule: Q01DX009 (ip), vehicle: carboxymethylcellulose (CMC) 100 % of control | dose: 100.0 mg/kg/injection, schedule: Q01DX009 (ip), vehicle: carboxymethylcellulose (CMC) 114 % of control | [1] 89 % of control | [2] 112 % of control | dose: 200.0 mg/kg/injection, schedule: Q01DX009 (ip), vehicle: carboxymethylcellulose (CMC) 114 % of control | [3] 98 % of control | [4] 105 % of control | [5] 96 % of control | [6] 112 % of control

COc1cc(Cl)ccc1NC(=S)Nc1ccccc1
inactive: [7] 97 % of control | [8] 101 % of control | [9] 97 % of control

C[CH2][Pb]([CH2]C)([CH2]C)[N](C#N)C(=N)N
inactive: dose: 25.0 mg/kg/injection, schedule: Q04DX002 (ip), vehicle: Klucel (hydroxypropylcellulose) (HPC) 97 % of control | dose: 50.0 mg/kg/injection, schedule: Q04DX002 (ip), vehicle: Klucel (hydroxypropylcellulose) (HPC) 101 % of control

Cc1nc(N)ccc1[N+](=O)[O-]
inactive: dose: 100.0 mg/kg/injection, schedule: Q04DX003 (ip), vehicle: saline sonified 98 % of control | dose: 200.0 mg/kg/injection, schedule: Q04DX003 (ip), vehicle: saline sonified 101 % of control | dose: 400.0 mg/kg/injection, schedule: Q04DX003 (ip), vehicle: saline sonified 104 % of control

Cc1cc(C)c(CCN(C)C)c(C)c1
inactive: [10] 101 % of control | [11] 97 % of control | [12] 91 % of control

CCOc1ccc(Nc2ncnc3nc[nH]c23)cc1CN(CCCl)C(C)CCl (stereo not given)
inactive: dose: 1.0 mg/kg/injection, schedule: Q01DX Z (ip), vehicle: saline 112 % of control | dose: 2.0 mg/kg/injection, schedule: Q01DX Z (ip), vehicle: saline 111 % of control | dose: 4.0 mg/kg/injection, schedule: Q01DX Z (ip), vehicle: saline 97 % of control

Cc1ccc([N+](=O)[O-])cc1NC(=O)Oc1ccc(Cl)cc1Cl
inactive: [2] 104 % of control | [4] 100 % of control

CC1(C)CCC2(C(=O)OC3OC(CO)C(O)C(O)C3O)CCC3(CO)C(=CCC4C5(C)CC(O)C(O)C(C)(C(=O)OC6OC(CO)C(O)C(O)C6O)C5CCC43C)C2C1 (stereo not given)
inactive: dose: 75.0 mg/kg/injection, schedule: Q01DX001 (sc), vehicle: steriod suspending solution 101 % of control | dose: 300.0 mg/kg/injection, schedule: Q01DX001 (sc), vehicle: steriod suspending solution 107 % of control

COc1ccc(C2C3CCC(C3)C2C(C)=O)cc1 (stereo not given)
inactive: dose: 100.0 mg/kg/injection, schedule: Q01DX001 (ip), vehicle: saline with Tween-80 101 % of control | dose: 200.0 mg/kg/injection, schedule: Q01DX001 (ip), vehicle: saline with Tween-80 90 % of control | dose: 400.0 mg/kg/injection, schedule: Q01DX001 (ip), vehicle: saline with Tween-80 92 % of control

CC(Br)C(=O)NC(Cc1ccccc1)C(=O)O (stereo not given)
inactive: dose: 100.0 mg/kg/injection, schedule: Q01DX009 (ip), vehicle: alcohol 93 % of control | dose: 100.0 mg/kg/injection, schedule: Q04DX003 (ip), vehicle: other 104 % of control | [2] 94 % of control | dose: 200.0 mg/kg/injection, schedule: Q01DX009 (ip), vehicle: alcohol 100 % of control | dose: 200.0 mg/kg/injection, schedule: Q04DX003 (ip), vehicle: other 104 % of control and 88 % of control | [4] 96 % of control | dose: 400.0 mg/kg/injection, schedule: Q01DX009 (ip), vehicle: alcohol 90 % of control | dose: 400.0 mg/kg/injection, schedule: Q04DX003 (ip), vehicle: other 92 % of control and 88 % of control | [6] 91 % of control

CC(=O)Oc1ccc2c(C)cc(=O)oc2c1
inactive: [11] 100 % of control | [12] 109 % of control

Cc1c(Br)c(=O)n(-c2ccccc2)n1C
inactive: dose: 50.0 mg/kg/injection, schedule: Q01DX009 (ip), vehicle: Klucel (hydroxypropylcellulose) (HPC) 94 % of control | dose: 100.0 mg/kg/injection, schedule: Q01DX009 (ip), vehicle: Klucel (hydroxypropylcellulose) (HPC) 98 % of control | [1] 101 % of control | [13] 100 % of control | [3] 100 % of control

c1ccc(C2CC3c4ccccc4C2c2cccc[n+]23)nc1 (stereo not given)
inactive: dose: 100.0 mg/kg/injection, schedule: Q01DX001 (ip), vehicle: Klucel (hydroxypropylcellulose) (HPC) 101 % of control | dose: 200.0 mg/kg/injection, schedule: Q01DX001 (ip), vehicle: Klucel (hydroxypropylcellulose) (HPC) 107 % of control

CCOC(=O)NNc1ccccc1
inactive: [11] 102 % of control | [12] 97 % of control

O=C(OCCC/C(=C\c1cc2ccccc2c2ccccc12)[N+](=O)[O-])c1ccccc1
inactive: dose: 100.0 mg/kg/injection, schedule: Q01DX001 (ip), vehicle: other 87 % of control | dose: 200.0 mg/kg/injection, schedule: Q01DX001 (ip), vehicle: other 92 % of control | dose: 400.0 mg/kg/injection, schedule: Q01DX001 (ip), vehicle: other 91 % of control

Cn1cnc(N)c1C(N)=S
inactive: [14] 100 % of control | [13] 98 % of control | [15] 92 % of control | dose: 400.0 mg/kg/injection, schedule: Q01DX009 (ip), vehicle: Klucel (hydroxypropylcellulose) (HPC) 92 % of control | dose: 400.0 mg/kg/injection, schedule: Q04DX003 (ip), vehicle: saline 104 % of control

COc1cccc(CC(=O)NCCc2ccc(OC)c(OC)c2)c1
inactive: dose: 100.0 mg/kg/injection, schedule: Q01DX009 (ip), vehicle: saline with Tween-80 92 % of control | [2] 92 % of control | dose: 200.0 mg/kg/injection, schedule: Q01DX009 (ip), vehicle: saline with Tween-80 95 % of control | [4] 94 % of control | dose: 400.0 mg/kg/injection, schedule: Q01DX009 (ip), vehicle: saline with Tween-80 90 % of control | [6] 91 % of control

Cc1ccnc(N)c1
inactive: dose: 12.5 mg/kg/injection, schedule: Q04DX002 (ip), vehicle: saline 114 % of control | dose: 25.0 mg/kg/injection, schedule: Q04DX002 (ip), vehicle: saline 102 % of control | [16] 96 % of control

C=CC(=O)N(CCN1CCOCC1)C(C)C
inactive: [17] 94 % of control | [18] 97 % of control | dose: 400.0 mg/kg/injection, schedule: Q04DX002 (ip), vehicle: saline 94 % of control

N#C/C(=C\c1ccc(Cl)cc1)c1ccccc1
inactive: dose: 100.0 mg/kg/injection, schedule: Q04DX003 (ip), vehicle: gum acacia 100 % of control | dose: 200.0 mg/kg/injection, schedule: Q04DX003 (ip), vehicle: gum acacia 102 % of control | dose: 400.0 mg/kg/injection, schedule: Q04DX003 (ip), vehicle: gum acacia 109 % of control

CCCC(=O)N1CCC(C)CC1
inactive: [10] 103 % of control | dose: 50.0 mg/kg/injection, schedule: Q01DX009 (ip), vehicle: saline 97 % of control and 98 % of control | [16] 112 % of control | dose: 50.0 mg/kg/injection, schedule: Q04DX003 (ip), vehicle: saline 100 % of control | [11] 100 % of control | dose: 100.0 mg/kg/injection, schedule: Q01DX009 (ip), vehicle: saline 98 % of control | [17] 102 % of control | [14] 107 % of control | [12] 103 % of control | dose: 200.0 mg/kg/injection, schedule: Q01DX009 (ip), vehicle: saline 94 % of control and 113 % of control | [18] 102 % of control | [15] 95 % of control

O=C1C(=O)c2ccccc2C(O)=C1C(CCc1ccccc1)C1=C(O)c2ccccc2C(=O)C1=O
inactive: dose: 75.0 mg/kg/injection, schedule: Q01DX001 (ip), vehicle: carboxymethylcellulose (CMC) 106 % of control | dose: 75.0 mg/kg/injection, schedule: Q01DX001 (ip), vehicle: saline 96 % of control | dose: 150.0 mg/kg/injection, schedule: Q01DX001 (ip), vehicle: saline 94 % of control

Cc1cc(C)cc(-n2cccc2C(=O)O)c1
inactive: [7] 89 % of control | [8] 86 % of control | [9] 96 % of control

CC(=O)Oc1c(C)cccc1C(=O)O
inactive: [1] 92 % of control | [3] 103 % of control | [5] 88 % of control

Cc1ccc(S(=O)(=O)Nc2ccccc2C(=O)c2ccc(C)c(C)c2)cc1
inactive: dose: 100.0 mg/kg/injection, schedule: Q01DX001 (ip), vehicle: carboxymethylcellulose (CMC) 100 % of control
